# Reference: ChEMBL document CHEMBL3046843, “Synthesis and investigation of anti-inflammatory activity of novel nitric oxide donating hybrid drugs” (Med Chem Res, 2013)
# Assays:
# [1] = system: Rattus norvegicus; experiment: Ulcerogenic activity in fasted albino Rattus norvegicus (rat) at 14 mg/kg, po administered QD for 3 days measured on day 4; assay type: toxicity, organism-based; set-up: dose 14 mg/kg, route oral; settings: in vivo, 72 h
# [2] = system: Rattus norvegicus; experiment: Ulcerogenic activity in fasted albino Rattus norvegicus (rat) assessed as stomach mucosal injury at 14 mg/kg, po administered QD for 3 days measured on day 4 by electron microscopic analysis; assay type: toxicity, organism-based; set-up: dose 14 mg/kg, route oral; settings: in vivo, 72 h
# [3] = system: Rattus norvegicus; experiment: Anti-inflammatory activity in Rattus norvegicus (rat) assessed as inhibition of carrageenan-induced paw edema at 14 mg/kg, po administered at 1 hr prior to carrageenan-challenge measured after 1 hr relative to control; assay type: functional
# [4] = system: Rattus norvegicus; experiment: Anti-inflammatory activity in Rattus norvegicus (rat) assessed as inhibition of carrageenan-induced paw edema at 14 mg/kg, po administered at 1 hr prior to carrageenan-challenge measured after 3 hr relative to control; assay type: functional
# [5] = system: Rattus norvegicus; experiment: Anti-inflammatory activity in Rattus norvegicus (rat) assessed as inhibition of carrageenan-induced paw edema at 14 mg/kg, po administered at 1 hr prior to carrageenan-challenge measured after 4 hr relative to control; assay type: functional
# [6] = Induction of nitric oxide release in phosphate buffer at 10^-4 M after 1 hr at pH 7.4 by Griess method in presence of L-cysteine relative to control; assay type: physicochemical; settings: pH 7.4, 1 h, 100 µM
# [7] = system: Mus musculus; experiment: Analgesic activity in Mus musculus (mouse) assessed as inhibition of acetic acid-induced writhing at 14 mg/kg, po measured after 25 min relative to control; assay type: functional
# [8] = system: Rattus norvegicus; experiment: Anti-inflammatory activity in Rattus norvegicus (rat) assessed as inhibition of carrageenan-induced paw edema at 14 mg/kg, po administered at 1 hr prior to carrageenan-challenge measured after 2 hr relative to control; assay type: functional
# [9] = system: Rattus norvegicus; experiment: Anti-inflammatory activity in Rattus norvegicus (rat) assessed as inhibition of carrageenan-induced paw edema at 13 mg/kg, po administered at 1 hr prior to carrageenan-challenge measured after 2 hr relative to control; assay type: functional
# [10] = system: Rattus norvegicus; experiment: Ulcerogenic activity in fasted albino Rattus norvegicus (rat) at 13 mg/kg, po administered QD for 3 days measured on day 4; assay type: toxicity, organism-based; set-up: dose 13 mg/kg, route oral; settings: in vivo, 72 h
# [11] = system: Rattus norvegicus; experiment: Ulcerogenic activity in fasted albino Rattus norvegicus (rat) assessed as stomach mucosal injury at 13 mg/kg, po administered QD for 3 days measured on day 4 by electron microscopic analysis; assay type: toxicity, organism-based; set-up: dose 13 mg/kg, route oral; settings: in vivo, 72 h
# [12] = system: Rattus norvegicus; experiment: Anti-inflammatory activity in Rattus norvegicus (rat) assessed as inhibition of carrageenan-induced paw edema at 13 mg/kg, po administered at 1 hr prior to carrageenan-challenge measured after 3 hr relative to control; assay type: functional
# [13] = system: Rattus norvegicus; experiment: Anti-inflammatory activity in Rattus norvegicus (rat) assessed as inhibition of carrageenan-induced paw edema at 13 mg/kg, po administered at 1 hr prior to carrageenan-challenge measured after 4 hr relative to control; assay type: functional
# [14] = system: Mus musculus; experiment: Analgesic activity in Mus musculus (mouse) assessed as inhibition of acetic acid-induced writhing at 13 mg/kg, po measured after 25 min relative to control; assay type: functional
# [15] = system: Rattus norvegicus; experiment: Anti-inflammatory activity in Rattus norvegicus (rat) assessed as inhibition of carrageenan-induced paw edema at 13 mg/kg, po administered at 1 hr prior to carrageenan-challenge measured after 1 hr relative to control; assay type: functional
# [16] = system: Rattus norvegicus; experiment: Anti-inflammatory activity in Rattus norvegicus (rat) assessed as inhibition of carrageenan-induced paw edema at 10 mg/kg, po administered at 1 hr prior to carrageenan-challenge measured after 4 hr relative to control; assay type: functional
# [17] = system: Mus musculus; experiment: Analgesic activity in Mus musculus (mouse) assessed as inhibition of acetic acid-induced writhing at 10 mg/kg, po measured after 25 min relative to control; assay type: functional
# [18] = system: Rattus norvegicus; experiment: Anti-inflammatory activity in Rattus norvegicus (rat) assessed as inhibition of carrageenan-induced paw edema at 10 mg/kg, po administered at 1 hr prior to carrageenan-challenge measured after 3 hr relative to control; assay type: functional
# [19] = system: Rattus norvegicus; experiment: Ulcerogenic activity in fasted albino Rattus norvegicus (rat) at 10 mg/kg, po administered QD for 3 days measured on day 4; assay type: toxicity, organism-based; set-up: dose 10 mg/kg, route oral; settings: in vivo, 72 h
# [20] = system: Rattus norvegicus; experiment: Anti-inflammatory activity in Rattus norvegicus (rat) assessed as inhibition of carrageenan-induced paw edema at 10 mg/kg, po administered at 1 hr prior to carrageenan-challenge measured after 2 hr relative to control; assay type: functional
# [21] = system: Rattus norvegicus; experiment: Anti-inflammatory activity in Rattus norvegicus (rat) assessed as inhibition of carrageenan-induced paw edema at 10 mg/kg, po administered at 1 hr prior to carrageenan-challenge measured after 1 hr relative to control; assay type: functional
# [22] = system: Rattus norvegicus; experiment: Anti-inflammatory activity in Rattus norvegicus (rat) assessed as inhibition of carrageenan-induced paw edema at 12 mg/kg, po administered at 1 hr prior to carrageenan-challenge measured after 2 hr relative to control; assay type: functional
# [23] = system: Mus musculus; experiment: Analgesic activity in Mus musculus (mouse) assessed as inhibition of acetic acid-induced writhing at 12 mg/kg, po measured after 25 min relative to control; assay type: functional
# [24] = system: Rattus norvegicus; experiment: Ulcerogenic activity in fasted albino Rattus norvegicus (rat) at 12 mg/kg, po administered QD for 3 days measured on day 4; assay type: toxicity, organism-based; set-up: dose 12 mg/kg, route oral; settings: in vivo, 72 h
# [25] = system: Rattus norvegicus; experiment: Anti-inflammatory activity in Rattus norvegicus (rat) assessed as inhibition of carrageenan-induced paw edema at 12 mg/kg, po administered at 1 hr prior to carrageenan-challenge measured after 4 hr relative to control; assay type: functional
# [26] = system: Rattus norvegicus; experiment: Anti-inflammatory activity in Rattus norvegicus (rat) assessed as inhibition of carrageenan-induced paw edema at 12 mg/kg, po administered at 1 hr prior to carrageenan-challenge measured after 1 hr relative to control; assay type: functional
# [27] = system: Rattus norvegicus; experiment: Anti-inflammatory activity in Rattus norvegicus (rat) assessed as inhibition of carrageenan-induced paw edema at 12 mg/kg, po administered at 1 hr prior to carrageenan-challenge measured after 3 hr relative to control; assay type: functional
# [28] = system: Rattus norvegicus; experiment: Anti-inflammatory activity in Rattus norvegicus (rat) assessed as inhibition of carrageenan-induced paw edema at 20 mg/kg, po administered at 1 hr prior to carrageenan-challenge measured after 1 hr relative to control; assay type: functional
# [29] = system: Rattus norvegicus; experiment: Anti-inflammatory activity in Rattus norvegicus (rat) assessed as inhibition of carrageenan-induced paw edema at 20 mg/kg, po administered at 1 hr prior to carrageenan-challenge measured after 2 hr relative to control; assay type: functional
# [30] = system: Rattus norvegicus; experiment: Anti-inflammatory activity in Rattus norvegicus (rat) assessed as inhibition of carrageenan-induced paw edema at 20 mg/kg, po administered at 1 hr prior to carrageenan-challenge measured after 3 hr relative to control; assay type: functional
# [31] = system: Rattus norvegicus; experiment: Anti-inflammatory activity in Rattus norvegicus (rat) assessed as inhibition of carrageenan-induced paw edema at 20 mg/kg, po administered at 1 hr prior to carrageenan-challenge measured after 4 hr relative to control; assay type: functional
# [32] = system: Mus musculus; experiment: Analgesic activity in Mus musculus (mouse) assessed as inhibition of acetic acid-induced writhing at 20 mg/kg, po measured after 25 min relative to control; assay type: functional
structure (smiles),measurement,setting,value
CC(=O)Nc1ccc(OC(=O)c2ccccc2N(CCO[N+](=O)[O-])c2ccccc2)cc1,Activity,[1],Non-toxic
same,Activity,[2],Non-toxic
same,inhibition in vivo at 14 mg/kg,[3],26.7%
same,inhibition in vivo at 14 mg/kg,[4],65.8%
same,inhibition in vivo at 14 mg/kg,[5],59.6%
same,Activity,[6],10.71%
same,inhibition in vivo at 14 mg/kg,[7],15.4%
same,inhibition in vivo at 14 mg/kg,[8],55.2%
CC(=O)Nc1ccc(OC(=O)c2ccccc2N(CCO[N+](=O)[O-])c2ccc([N+](=O)[O-])cc2)cc1,inhibition in vivo at 13 mg/kg,[9],11.9%
same,Activity,[10],Non-toxic
same,Activity,[11],Non-toxic
same,inhibition in vivo at 13 mg/kg,[12],23.3%
same,inhibition in vivo at 13 mg/kg,[13],32.1%
same,inhibition in vivo at 13 mg/kg,[14],13.8%
same,Activity,[6],6.98%
same,inhibition in vivo at 13 mg/kg,[15],6.67%
CC(=O)Nc1ccc(OC(=O)c2ccccc2N(CCO[N+](=O)[O-])c2ccc(C)cc2)cc1,Activity,[1],Non-toxic
same,Activity,[2],Non-toxic
same,inhibition in vivo at 14 mg/kg,[3],30%
same,inhibition in vivo at 14 mg/kg,[4],24.4%
same,inhibition in vivo at 14 mg/kg,[5],36.8%
same,Activity,[6],7.31%
same,inhibition in vivo at 14 mg/kg,[7],21.8%
same,inhibition in vivo at 14 mg/kg,[8],18%
CC(=O)Nc1ccc(OC(=O)c2ccc(N(CCO[N+](=O)[O-])c3ccccc3C(=O)Oc3ccc(NC(C)=O)cc3)cc2)cc1,inhibition in vivo at 10 mg/kg,[16],12.1%
same,inhibition in vivo at 10 mg/kg,[17],11.2%
same,inhibition in vivo at 10 mg/kg,[18],13.7%
same,Activity,[19],Non-toxic
same,inhibition in vivo at 10 mg/kg,[20],18.7%
same,inhibition in vivo at 10 mg/kg,[21],11.7%
same,Activity,[6],2.46%
CC(=O)Nc1ccc(OC(=O)c2ccccc2N(CCO[N+](=O)[O-])c2ccc(S(N)(=O)=O)cc2)cc1,inhibition in vivo at 12 mg/kg,[22],11.5%
same,inhibition in vivo at 12 mg/kg,[23],26.2%
same,Activity,[24],Non-toxic
same,inhibition in vivo at 12 mg/kg,[25],9.41%
same,Activity,[6],5.88%
same,inhibition in vivo at 12 mg/kg,[26],8.33%
same,inhibition in vivo at 12 mg/kg,[27],8.46%
O=C(O)Cc1ccccc1Nc1c(Cl)cccc1Cl [DICLOFENAC SODIUM],inhibition in vivo at 20 mg/kg,[28],45%
same,inhibition in vivo at 20 mg/kg,[29],42.1%
same,inhibition in vivo at 20 mg/kg,[30],73.3%
same,inhibition in vivo at 20 mg/kg,[31],73.4%
same,inhibition in vivo at 20 mg/kg,[32],8.2%
